Measurements taken from patent US5629430A, “Trifluoromethylpyrroloindolecarboxylic acid ester and process for production thereof” (Kyorin Pharmaceutical Co., Ltd., priority 1992, dated 1997).
≈ marks a conversion by molar mass, not a printed value. Where a name gives a salt, the structure may show the parent alone. Read-outs that look alike come from different tables or passages of the source.

How the values were obtained:
[1] = tested on: P388 mouse leukemia cells; test: Activity against tumor cell growth (P388, MTT, 72 h); format: cell-based; conditions: P388 mouse leukemia cells, 72 h, 37° C., MTT; read-out: IC50 (50% growth inhibition concentration)
Description: Using a culture medium RPMI1640 supplemented with 10% inactivated bovine fetal serum, 2 mM glutamine, 100 μ/ml kanamycin sulfate, and 5 μM 2-hydroxyethyldisulfide (This culture medium is hereinafter referred to simply as "culture medium"), P388 mouse leukemia cells were diluted to a concentration of 1.5×10^5 cells/ml in the culture medium, and were placed in each well of 96-well multiplate in 60 μl portions. Separately, the test compound was dissolved in dimethylsulfoxide and was adequately diluted with the culture medium. The diluted solution containing test compound was added to the wells of the above plate respectively in 60 μl portions. Then the cells were incubated in a CO2 -incubator (5% CO2, 37° C.) for 72 hours.
The surviving cell numbers were measured according to the Mosmann's method (J. Immunol. Meth., 65 55-63, 1983) as follows. A 2.5 mg/ml solution of MTT (3-[4,5-dimethylthiazol-2-yl]-2,5-diphenyltetrazolium bromide) in Dulbecco's phosphate buffer solution (PBS) was prepared and added to each of the wells by 20 μl. The cells were further incubated for 3 hours. A 150 μl portion of 0.04N hydrochloric acid-isopropanol solution was added to each of the wells, and MTT-formazane formed was allowed to dissolve by pipetting. The absorbance of the solutions was measured at 540 nm taking the no-cell-containing [solution as the background. The 50% growth inhibition concentration (ICs50) was calculated from ratio of the absorbances of the treated samples to the absorbance of the no-medicine-treated sample, and from the concentration of the test compound.

Sarcoma-180 cells = test: Antineoplastic activity, mice having Sarcoma-180 cells transplanted subcutaneously; format: in vivo, mouse (female, CDR strain); conditions: Mus musculus, Sarcoma-180, iv, 144 h, read-out: T/C (average tumor weight, dosed vs. solvent-dosed control)
Description: The test compound was dissolved in dimethylsulfoxide, and the solution was adequately diluted with 10% Emulfore EL620(produced by Rhone Poulenc Co.) to prepare the test compound solution. The antineoplastic activity was evaluated as below.
To the lateral region of a female mouse (CDR strain, 5 to 6 week age), 3.6×10^6 to 5×10^6 Sarcoma-180 cells were transplanted subcutaneously. Next day, the test medicine solution was injected into the tail vein in a single dose. Eight to twelve mice were employed for the solvent-dosed control group, and five mice were employed for the dosed group. Six days after the dosage, the tumor was cut out, and the weight thereof was measured. The antineoplastic effect was evaluated by the ratio (T/C) of the average tumor weight of the dosed group (T) to the average tumor weight of the solvent-dosed control group (C).

SMILES	IC50 [1] [ng/mL]	other results
COC(=O)c1c(C(F)(F)F)[nH]c2c(O)cc3c(c12)C(CCl)CN3C(=O)c1cc2cc(NC(=O)c3cc4cccc(OC)c4o3)ccc2[nH]1 (centres unmarked) [Example 11, Methyl 1-chloromethyl-5-hydroxy-3-[5-[(7-methoxybenzofuran-2-ylcarbonyl)amino]-1H-indol-2-ylcarbonyl]-7-trifluoromethyl-1,2,3,6-tetrahydropyrrolo[3,2-e]indole-8-carboxylate]	0.67 (≈ 0.984 nM)	response vs control in vivo at 1 mg/kg (Sarcoma-180 cells; i.v. 1.0 mg/kg single dose, tumor weighed six days after dosage): 6%
COC(=O)c1c(C(F)(F)F)[nH]c2c(O)cc3c(c12)C(CBr)CN3C(=O)c1cc2cc(NC(=O)c3cc4c(OC)c(OC)c(OC)cc4cn3)ccc2[nH]1 (centres unmarked) [Example 44, Methyl 1-bromomethyl-5-hydroxy-7-trifluoromethyl-3-[5-[(5,6,7-trimethoxyisoquinolin-3-ylcarbonyl)amino]-1H-indol-2-ylcarbonyl]-1,2,3,6-tetrahydropyrrolo[3,2-e]indole-8-carboxylate]	0.07 (≈ 0.0879 nM)	–
COC(=O)c1c(C(F)(F)F)[nH]c2c(O)cc3c(c12)C(CBr)CN3C(=O)c1cc2cc(NC(=O)c3cc4c(cn3)[nH]c3ccccc34)ccc2[nH]1 (centres unmarked) [Example 45, Methyl 1-bromomethyl-5-hydroxy-3-[5-[(9H-pyrido[3,4-b]indol-3-ylcarbonyl)amino]-1H-indol-2-ylcarbonyl]-7-trifluoromethyl-1,2,3,6-tetrahydropyrrolo[3,2-e]indole-8-carboxylate]	0.12 (≈ 0.161 nM)	–
COC(=O)c1c(C(F)(F)F)[nH]c2c(OC(=O)N3CCN(C)CC3)cc3c(c12)C(CCl)CN3C(=O)c1cc2cc(NC(=O)c3cc4cc(OC)c(OC)c(OC)c4[nH]3)ccc2[nH]1 (centres unmarked) [Example 51, Methyl 1-chloromethyl-5-(4-methylpiperazin-1-ylcarbonyl)oxy-7-trifluoromethyl-3-[5-[(5,6,7-trimethoxy1H-indol-2-ylcarbonyl)amino]-1H-indol-2-ylcarbonyl)-1,2,3,6tetrahydropyrrolo[3,2-e]indol, e-8-carboxylate]	–	response vs control in vivo at 4 mg/kg (Sarcoma-180 cells): 25%
COC(=O)c1c(C(F)(F)F)[nH]c2c(OC(=O)N3CCN(C)CC3)cc3c(c12)C(CCl)CN3C(=O)c1cc2cc(NC(=O)c3cc4ccccc4cn3)ccc2[nH]1 (centres unmarked) [Example 52, Methyl 1-chloromethyl-5-(4-methylpiperazin-1-ylcarbonyl)oxy-3-[5-[(isoquinolin-3-ylcarbonyl)amino]-1H-indol-2-ylcarbonyl)-7-trifluoromethyl-1,2,3,6-tetrahydropyrrolo[3,2-e]indole-8-carboxylate]	–	response vs control in vivo at 1 mg/kg (Sarcoma-180 cells): 12%
COC(=O)c1c(C(F)(F)F)[nH]c2c(OC(=O)N3CCN(C)CC3)cc3c(c12)C(CBr)CN3C(=O)c1cc2cc(NC(=O)c3cc4cc(OC)c(OC)c(OC)c4[nH]3)ccc2[nH]1 (centres unmarked) [Example 53, Methyl 1-bromomethyl-5-(4-methylpiperazin-1-ylcarbonyl)oxy-7-trifluoromethyl-3-[5-[(5,6,7-trimethoxy1H-indol-2-ylcarbonyl)amino]1H-indol-2-ylcarbonyl]-1,2,3,6-tetrahydropyrrolo[3,2-e]indole-8-carboxylate]	–	response vs control in vivo at 4 mg/kg (Sarcoma-180 cells): 20%
COC(=O)c1c(C(F)(F)F)[nH]c2c(OC(=O)N3CCN(C)CC3)cc3c(c12)C(CBr)CN3C(=O)c1cc2cc(NC(=O)c3cc4ccccc4cn3)ccc2[nH]1 (centres unmarked) [Example 54, Methyl 1-bromomethyl-5-(4-methylpiperazin-1-ylcarbonyl)oxy-3-[5-[(isoquinolin-3-ylcarbonyl)amino]-1H-indol-2-ylcarbonyl]-7-trifluoromethyl-1,2,3,6-tetrahydropyrrolo[3,2-e]indole-8-carboxylate hydrochloride salt]	–	response vs control in vivo at 0.25 mg/kg (Sarcoma-180 cells): 15%
COC(=O)c1c(C(F)(F)F)[nH]c2c(O)cc3c(c12)[C@H](CCl)CN3C(=O)c1cc2cc(NC(=O)OC(C)(C)C)ccc2[nH]1 [Example 64, Methyl (1S)-3-[5-(t-butoxycarbonyl)amino-1H-indol-2-ylcarbonyl]-1-chloromethyl-5-hydroxy-7-trifluoromethyl-1,2,3,6-tetrahydropyrrolo[3,2-e]indole-8-carboxylate]	3.9 (≈ 6.43 nM)	–
COC(=O)c1c(C(F)(F)F)[nH]c2c(O)cc3c(c12)[C@H](CCl)CN3C(=O)c1cc2cc(NC(=O)CN(C)C)ccc2[nH]1 [Example 65, Methyl (1S)-1-chloromethyl-3-[5 (dimethylaminomethylcarbonyl)amino-1H-indol-2-ylcarbonyl]-5-hydroxy-7-trifluoromethyl-1,2,3,6-tetrahydropyrrolo[3,2-e]indole-8-carboxylate]	0.11 (≈ 0.186 nM)	–
COC(=O)c1c(C(F)(F)F)[nH]c2c(O)cc3c(c12)[C@H](CCl)CN3C(=O)c1cc2c(OC)cccc2o1 [Example 66, Methyl (1S)-1-chloromethyl-5-hydroxy-3-(4-methoxybenzofuran-2-ylcarbonyl)-7-trifluoromethyl-1,2,3,6-tetrahydropyrrolo[3,2-e]indole-8-carboxylate]	0.77 (≈ 1.47 nM)	–
COC(=O)c1c(C(F)(F)F)[nH]c2c(O)cc3c(c12)[C@H](CCl)CN3C(=O)c1cc2cc(OC)ccc2o1 [Example 67, Methyl (1S)-1-chloromethyl-5-hydroxy-3-(5-methoxybenzofuran-2-ylcarbonyl)-7-trifluoromethyl-1,2,3,6-tetrahydropyrrolo[3,2-e]indole-8-carboxylate]	0.026 (≈ 0.0497 nM)	–
COC(=O)c1c(C(F)(F)F)[nH]c2c(O)cc3c(c12)[C@H](CCl)CN3C(=O)c1cc2ccc(OC)cc2o1 [Example 68, Methyl (1S)-1-chloromethyl-5-hydroxy-3-(6-methoxybenzofuran-2-ylcarbonyl)-7-trifluoromethyl-1,2,3,6-tetrahydropyrrolo[3,2-e]indole-8-carboxylate]	0.051 (≈ 0.0975 nM)	–
COC(=O)c1c(C(F)(F)F)[nH]c2c(O)cc3c(c12)[C@H](CCl)CN3C(=O)c1cc2cc(OC)c(OC)c(OC)c2o1 [Example 69, Methyl (1S)-1-chloromethyl-5-hydroxy-7-trifluoromethyl-3-(5,6,7-trimethoxybenzofuran-2-ylcarbonyl)-1,2,3,6-tetrahydropyrrolo[3,2-e]indole-8-carboxylate]	0.046 (≈ 0.0789 nM)	–
COC(=O)c1c(C(F)(F)F)[nH]c2c(O)cc3c(c12)[C@H](CCl)CN3C(=O)c1cc2cccc(OC)c2o1 [Example 70, Methyl (1S)-1-chloromethyl-5-hydroxy-3-(7-methoxybenzofuran-2-ylcarbonyl)-7-trifluoromethyl-1,2,3,6-tetrahydropyrrolo[3,2-e]indole-8-carboxylate]	2 (≈ 3.83 nM)	–
COC(=O)c1c(C(F)(F)F)[nH]c2c(O)cc3c(c12)[C@H](CCl)CN3C(=O)/C=C/c1ccc(OC)cc1 [Example 74, Methyl (1S)-1-chloromethyl-5-hydroxy-3-[2-(4-methoxyphenyl)ethylene-1-ylcarbonyl]-7-trifluoromethyl-1,2,3,6-tetrahydropyrrolo[3,2-e]indole-8-carboxylate]	1.3 (≈ 2.55 nM)	–
COC(=O)c1c(C(F)(F)F)[nH]c2c1[C@@]13C[C@@H]1CN(C(=O)c1cc4cc(NC(=O)OC(C)(C)C)ccc4[nH]1)C3=CC2=O [Example 84, Methyl (7bR, 8aS)-2-[5-(t-butoxycarbonyl)amino-1H-indole-2-ylcarbonyl]-6-trifluoromethyl-1,2,8,8a-tetrahydrocyclopropa[c]pyrrolo[3,2-e]indole-4 (5H)-one-7-carboxylate]	1.7 (≈ 2.98 nM)	–
